# Measurements published in patent US20080207632A1, “PROTEIN KINASE INHIBITORS” (SUPERGEN, INC., priority 2006, published 2008).
# Key:
# [1] = test system: HepG2 (hepatocellular carcinoma); test: in vitro cytotoxicity assay (Cell-Titer-Glo), HepG2; assay type: cell-based; conditions: Homo sapiens, Table 10, 96 hours, read-out: IC50 HepG2 (inhibit cell growth to 50% of untreated)
# [2] = test system: Aurora-2 kinase (Aurora-A) over Aurora-1 kinase (Aurora-B); test: SelectScreen kinase assay, specificity within the Aurora kinase family; assay type: biochemical; conditions: SelectScreen kinase assay system
# Experimental: In order to determine the specificity of compound 2-3 within the Aurora kinase family, both Aurora-2 kinase (Aurora-A) and Aurora-1 kinase (Aurora-B) were examined for sensitivity to this molecule. These studies were performed using the SelectScreen kinase assay system (Invitrogen Corp.; Madison, Wis.) and gave rise to the results presented in FIG. 2.
# [3] = test system: A549 non-small cell lung carcinoma cells; test: cell cycle distribution by DNA content flow cytometry (Guava); assay type: cell-based; conditions: synchronized A549 cells, 24 hours post-release
# Experimental: It is expected that a specific Aurora-2 kinase inhibitor would cause only brief cell cycle arrest at G2/M, which should be immediately followed by apoptosis. This is in contrast to Aurora-1 kinase inhibitors, which tend to cause a prolonged cell cycle arrest. compound 2-3 was examined for its ability to cause cell cycle arrest and apoptosis. Briefly, A549 non-small cell lung carcinoma cells were plated at 50000 cells/mL in a 24-well plate. Cells were synchronized with 4 μg/mL Aphidicolin for 16 hours, followed by a 24 hour synchronization with 1 μg/mL Hoechst 33342, to arrest the cells at the G2/M boundary. Cells were then released into regular medium with or without SGI-498 and allowed to grow for an additional 24 hours. This synchronization was necessary for visualization of the brief G2/M arrest caused by compound 2-3. Following this incubation, cells were stained for DNA content analysis using the Guava Cell Cycle Assay Kit (Guava Technologies, Hayward Calif.), according to manufacturer instructions. Cells were then analyzed with the Guava EasyCyte benchtop flow cytometer using the Guava Cell Cycle analysis protocol. Cells were gated according to DNA content into G0/G1, S, G2/M or apoptotic (sub-G1) categories.
# [4] = test system: Histone H3 phospho-Serine 10 in MiaPaCa-2 cells; test: Western Blot for Histone H3 phospho-Serine 10; assay type: cell-based; conditions: synchronized MiaPaCa-2 cells, 30 µM compound, 24 hours
# Text: A hallmark of Aurora-2 kinase inhibition, which distinguishes it from Aurora-1 kinase inhibition, is an increase in Histone H3 phosphorylation on Serine 10, an activity which is controlled by Aurora-1 kinase. This is in contrast to the decrease in Histone H3 phosphorylation that has been observed with Aurora-1 kinase inhibition. Compound 2-3 was examined for its effect on Histone H3 phosphorylation, in order to further verify its specificity for Aurora-2 kinsase. Briefly, MiaPaCa-2 cells were grown in 25 cm^2 flasks to approximately 40% confluency, and then synchronized with Aphidicolin and Hoechst 33342 as described above. Cell were then released and treated with 30 µM compound 2-3 in culture medium for 24 hours. Cells were then lysed, and total protein was quantified. 50 μg of total protein was electrophoresed and transferred to nitrocellulose, at which time Western Blot analysis for Histone H3 phospho-Serine 10 was performed. […] This signal quickly disappeared, as the cells began to undergo apoptosis, as discussed earlier.
# DU145 carcinoma = test: DU145 prostate cancer xenograft; assay type: in vivo
# Experimental: In this study, DU145 carcinoma model was used to evaluate the anti-tumor efficacy of compound 2-3. The murine xenograft model was established by inoculating 2×10^6 cells into each Balb/c nude mouse via s.c. injection. When the average tumor size reached ˜100 mm^3, the mice were randomly divided into different experimental groups based on tumor size. Subcutaneous administration of compound 2-3 was conducted via an Alzet osmotic pump. On day 30 a second cycle of dosing was initiated.
SMILES,IC50 [1],selectivity for Aurora-2 kinase over Aurora-1 kinase [2],cell cycle arrest and apoptosis [3],Histone H3 Serine 10 phosphorylation [4],"tumor growth (DU145 carcinoma; Alzet osmotic pump subcutaneous or intravenous, second cycle on day 30)",tolerability of repeat dose (weight loss) (DU145 carcinoma; repeat dose in mice),efficacy by route of administration (DU145 carcinoma; subcutaneous versus intravenous)
"CC(=O)NS(=O)(=O)c1ccc(NC(=S)N2CCN(c3ncnc4[nH]c5cc(C(F)(F)F)c(Cl)cc5c34)CC2)cc1 [Compound 1-1, 4-(6-Chloro-7-trifluoromethyl-9H-pyrimido[4,5-b]indol-4-yl)-piperazine-1-carbothioic acid (4-acetylsulfamoyl-phenyl)-amide]",7.83 µM,,,,,,
"COc1cc2[nH]c3ncnc(N4CCN(C(=S)Nc5ccc(S(=O)(=O)Nc6ccc(F)cc6)cc5)CC4)c3c2cc1OC [Compound 2-3, 4-(6,7-dimethoxy-9H-pyrimido[4,5-b]indol-4-yl)-N-(4-(N-(4-fluorophenyl)sulfamoyl)phenyl)piperazine-1-carbothioamide]",,over 100 fold,Brief Cell Cycle Arrest in G2/M. Followed by Apoptosis,pronounced phosphorylation signal,led to a reduction in tumor growth,well tolerated,more effective when administered subcutaneously than intravenously
